Measurements published in ChEMBL document CHEMBL5724558, “Image-based profiling of drug vulnerabilities in CRC organoids” (2024).
Several values for one entry are separate records, joined by “and”; a condition that tells them apart may be missing. Equal values may be shown once.

Key:
Assay type in all cases: functional, Homo sapiens
Set-up in all cases: dose or concentration left out as unconfirmed
Colon cancer organoid [1] = experiment: (§1) Image-based profiling of donated chemical probes and chemogenomic kinase set in O21 CRC organoid. Image analysis is performed on the sum area metric, and the data were normalized to the DMSO control. After imaging the organoid viability is measured using the OneGloEX Luciferase Assay System. The normalized viability data and sum area are reported.
Colon cancer organoid [2] = experiment: as §1, with “O06” for “O21”
Colon cancer organoid [3] = experiment: as §1, with “O09” for “O21”

Structure (SMILES)	Cell Viability (Colon cancer organoid [1]; Replication number 1)	Cell Viability (Colon cancer organoid [1]; Replication number 2)	Cell Viability (Colon cancer organoid [2]; Replication number 1)	Cell Viability (Colon cancer organoid [2]; Replication number 2)	Cell Viability (Colon cancer organoid [3]; Replication number 1)	Cell Viability (Colon cancer organoid [3]; Replication number 2)
O=C1[C@H](Cc2ccc(O)cc2)N2C(=O)CCN(C(=O)NCc3ccccc3)[C@H]2CN1Cc1cccc2ccccc12	89.9628% and 92.2926%	85.8858% and 90.2148%	96.6982% and 93.2617%	106.282% and 104.195%	80.9835% and 70.711%	121.345% and 94.0767%
C[C@@H]1CCNC(=O)c2cc3ccc(C(=O)Nc4nc5ccccc5n4CCCN(C)C)cc3n21	69.4409% and 79.1638%	71.3371% and 86.362%	118.285% and 99.4853%	110.228% and 88.2262%	82.052% and 59.5917%	80.614% and 53.9902%
CCOc1cc2ncc(C#N)c(Nc3ccc(OCc4cccc(F)c4)c(Cl)c3)c2cc1NC(=O)/C=C/CN(C)C [HKI-357]	27.4097% and 41.0314%	48.8208% and 68.5139%	2.387% and 8.346%	3.908% and 9.337%	14.2588% and 15.3343%	12.8508% and 14.4694%
CC1(C)C(N)=Nc2cc(OCCCCN3Cc4ccc(OCc5cn(CC(=O)N6CCC(CCN7CCCC7)CC6)nn5)cc4C3)c(OCC3CC3)cc21	75.5552% and 109.928%	77.1471% and 105.251%	120.738% and 74.8993%	69.8334% and 85.077%	129.867% and 99.2272%	184.968% and 121.159%
O=C(NNS(=O)(=O)c1ccccc1)c1cc(-c2ccnnc2)ccc1F [WM-2474]	113.818% and 97.6719%	86.2106% and 79.5377%	103.665% and 117.571%	96.3756% and 98.5103%	112.004% and 108.416%	87.165% and 94.3695%
Cn1c(C2(NC(=O)c3ccc(NCC4CCCCC4)nc3)CCC2)nc2ccc(/C=C/C(=O)O)cc21 [BI 7656]	95.8092% and 94.6419%	106.526% and 92.3751%	99.3838% and 109.64%	121.504% and 124.591%	151.482% and 117.548%	136.087% and 97.2553%
Cc1cc(-n2nc(Cc3cc(F)cc(C(F)(F)F)c3)nc2C)ccc1C(N)=O [TP-024]	86.6903% and 89.6507%	83.205% and 88.2653%	119.634% and 111.944%	93.5275% and 86.4673%	194.223% and 140.244%	90.9356% and 75.9401%
O=C(Nc1cccnn1)N1CCC(=Cc2cccc(Oc3ccc(C(F)(F)F)cn3)c2)CC1	101.123% and 116.429%	106.817% and 109.694%	84.0807% and 127.869%	104.052% and 107.077%	126.629% and 132.36%	65.2365% and 71.2669%
C[C@@H]1CCc2ncc(F)cc2[C@H]2CCCN2c2ccn3ncc(c3n2)C(=O)N1 [SELITRECTINIB]	119.212% and 110.383%	103.521% and 97.8769%	134.929% and 121.742%	93.5037% and 107.969%	111.995% and 102.727%	91.1731% and 73.4267%
O=c1nc(-c2ccccn2)sc2ccccc12 [BTZO-1]	137.995% and 94.89%	98.0739% and 81.1225%	100.751% and 107.26%	110.744% and 103.05%	107.798% and 116.353%	106.736% and 92.2965%
CO[C@@H](C)c1c(Nc2ccc([C@@H](N(C)C(=O)C3CCS(=O)(=O)CC3)C(F)(F)F)cc2)cnc2cc(Cl)nn12 [NVS-MALT1-C]	68.6015% and 94.398%	97.4598% and 109.109%	48.3396% and 100.567%	78.0608% and 112.446%	63.1352% and 96.7863%	75.29% and 89.0167%
CN(C)C(=O)Cn1cc(-c2ccc(-c3nnc4ccccn34)cc2)cn1	108.728% and 107.596%	93.8353% and 96.1497%	116.057% and 113.952%	85.0591% and 113.728%	166.343% and 115.942%	81.4375% and 98.5321%
CN1CCN(c2cnc3c(C4CCN(C(=O)c5ccc(OC(F)(F)F)cc5N)CC4)ncnc3c2)CC1 [BAY-885]	131.298% and 119.498%	99.2561% and 98.9123%	84.7491% and 99.8381%	93.9717% and 91.062%	40.0205% and 84.5942%	66.5359% and 88.2236%
CC(C)Oc1ccc(-c2c[nH]cc2CN(C)CCO)cc1	96.8467% and 122.861%	101.748% and 92.8998%	142.087% and 115.973%	131.014% and 107.302%	133.832% and 103.4%	212.72% and 118.594%
Cc1c(N2CCCC2)nc2ccc(Br)cc2c1C(=O)NC[C@H](CCC(=O)O)c1ccccc1Cl [BAY-6672]	101.261% and 132.048%	101.473% and 100.952%	80.703% and 111.012%	84.0903% and 90.3412%	62.7098% and 89.8462%	112.488% and 108.842%
CCC(=O)Nc1cccc(Oc2nc(Nc3ccc(N4CCN(C)CC4)cc3OC)ncc2Cl)c1	76.6045% and 88.0836%	80.6193% and 93.271%	127.075% and 113.507%	91.2646% and 89.6658%	45.1468% and 48.3715%	57.9255% and 59.3892%
O=C(CNCc1cc2ccccc2[nH]1)N[C@H]1CC[C@@H](c2nc3ccccc3[nH]2)CC1	73.7634% and 95.331%	89.7869% and 102.483%	105.609% and 101.043%	76.5637% and 75.4756%	116.461% and 89.5122%	85.4342% and 106.091%
CO[C@H]1CC[C@H](CNc2ccc(S(=O)(=O)NC(=O)c3ccc(N4CCN(CC5=C(c6ccc(Cl)cc6)CC(C)(C)CC5)CC4)cc3Oc3cnc4[nH]ccc4c3)cc2[N+](=O)[O-])CC1 [A-1211212]	101.35% and 117.861%	64.2952% and 94.8335%	28.9146% and 70.6883%	21.4505% and 46.3719%	50.8739% and 100.725%	51.2572% and 87.2324%
Cc1cnc(-c2cc(Cl)ccc2F)cc1-n1c(=O)n(CC(N)=O)c2cnccc21 [TP-008]	94.8191% and 94.398%	86.5351% and 93.3039%	69.5011% and 111.741%	79.5252% and 108.842%	46.9462% and 85.5321%	76.2638% and 97.3434%
NS(=O)(=O)c1cc(NC(=O)Cc2ccccc2)ccc1Oc1cccc(Cl)c1 [BAY-1797]	97.444% and 106.533%	100.538% and 94.898%	118.794% and 140.984%	77.9849% and 83.6245%	109.148% and 118.264%	102.589% and 110.989%
O=C(O)CNC(=O)c1c(O)c2ccccc2n(Cc2ccccc2)c1=O	116.47% and 93.4683%	109.318% and 89.1408%	94.9232% and 53.396%	101.3% and 76.2347%	105.314% and 91.1128%	142.9% and 106.905%
CN(C)[C@H]1CCN(c2cc(-c3ccccc3)nc3ccnn23)C1 [(S)-ZINC-3573]	105.743% and 100.4%	101.814% and 109.109%	125.32% and 118.543%	115.524% and 96.3479%	74.4521% and 108.791%	105.794% and 104.481%
C[C@@H]1CC(=O)Nc2cccc(-c3ccc4c(c3)c(-c3cnn(C)c3)nn4C)c2N1	80.8439% and 121.097%	82.2884% and 110.621%	59.3391% and 89.8792%	80.6716% and 83.4041%	75.8759% and 56.1051%	135.457% and 81.8182%
CN1C[C@H](Nc2cnn(C)c(=O)c2Br)C[C@H](c2ccccc2)C1	130.754% and 116.395%	102.417% and 96.6587%	155.67% and 115.973%	127.596% and 115.428%	140.201% and 85.3168%	101.083% and 86.6646%
Cl.Cl.NC1(c2ccc(-c3nc4ccn5c(=O)[nH]nc5c4cc3-c3ccccc3)cc2)CCC1	81.7246% and 91.8083%	79.6922% and 92.9418%	82.4513% and 94.6892%	74.7027% and 107.425%	47.4878% and 37.8628%	66.6317% and 37.3678%
Cl.O=C(O)c1cc(-c2ccc(C3CCNCC3)cc2)c2ccc(-c3ccc(C(F)(F)F)cc3)cc2c1	122.525% and 121.681%	120.065% and 115.738%	91.1935% and 100.081%	81.9268% and 87.9385%	82.2902% and 109.541%	53.2933% and 84.4568%
